Compound `O=C(O)[C@@H](CCCN1C(=O)c2ccccc2C1=O)NS(=O)(=O)c1ccc(-c2ccc(Cl)cc2)cc1` [Example 1, (2R)-(4′-Chlorobiphenyl-4-sulfonylamino)-5-(1,3-dioxo-1,3-dihydroisoindol-2-yl)pentanoic Acid] had a melting point of 179 to 181 °C. Turning to `O=C(NO)[C@@H](CCCN1C(=O)c2ccccc2C1=O)NS(=O)(=O)c1ccc(-c2ccc(Cl)cc2)cc1` [Example 2, (2R)-(4′-Chiorobiphenyl4-sulfonylamino)-5-(1,3-dioxo-1,3-dihydroisoindol-2-yl)pentanoic Acid Hydroxyamide], the melting point was 204 to 206 °C (dec.).

In turn, `O=C(O)[C@@H](CCCN1C(=O)c2ccccc2S1(=O)=O)NS(=O)(=O)c1ccc(-c2ccc(Cl)cc2)cc1` [Example 3, (2R)-(4′-Chlorobiphenyl-4-sulfonylamino)-5-(1,1,3-trioxo-2,3-dihydrobenzoisothiazol-2-yl)pentanoic Acid] came in with a melting point of 177 to 179 °C. In turn, `Cn1c(=O)n(CCC[C@@H](NS(=O)(=O)c2ccc(-c3ccc(Cl)cc3)cc2)C(=O)O)c(=O)c2ccccc21` [Example 4, (2R)-(4′-Chlorobiphenyl-4-sulfonylamino)-5-(1,2,3,4-tetrahydro-1-methyl-2,4-dioxoquinazolin-3-yl)pentanoic Acid] yielded a melting point of 188 to 191 °C. With `Cn1c(=O)n(CCC[C@@H](NS(=O)(=O)c2ccc(-c3ccccc3)cc2)C(=O)O)c(=O)c2ccccc21` [Example 5, (2R)-(4-Biphenylsulfonylamino)-5-(1,2,3,4-tetrahydro-1-methyl-2,4-dioxoquinazolin-3-yl)pentanoic Acid], the melting point was in the range of 222 to 224 °C. For the compound `Cc1ccc(S(=O)(=O)NCCC[C@@H](NS(=O)(=O)c2ccc(-c3ccc(Cl)cc3)cc2)C(=O)O)cc1` [Example 7, (2R)-(4′-Chlorobiphenyl-4-sulfonylamino)-5-(4-methylbenzenesulfonylamino)pentanoic Acid], the melting point was 62 °C. For `O=C(NO)[C@@H](CCCN1C(=O)c2ccccc2S1(=O)=O)NS(=O)(=O)c1ccc(-c2ccc(Cl)cc2)cc1` [Example 18, (2R)-(4′-Chlorobiphenyl-4-sulfonylamino)-5-(1,1,3-trioxo-2,3-dihydrobenzoisothiazol-2-yl)pentanoic Acid Hydroxyamide], the melting point was 200 to 205 °C (dec.). The compound `Cn1c(=O)n(CCC[C@@H](NS(=O)(=O)c2ccc(-c3ccc(Cl)cc3)cc2)C(=O)NO)c(=O)c2ccccc21` [Example 19, (2R)-(4′-Chlorobiphenyl-4-sulfonylamino)-5-(1,2,3,4-tetrahydro-1-methyl-2,4-dioxoquinazolin-3-yl)pentanoic Acid Hydroxyamide] had a melting point of 235 °C. Take `Cn1c(=O)n(CCC[C@@H](NS(=O)(=O)c2ccc(-c3ccccc3)cc2)C(=O)NO)c(=O)c2ccccc21` [Example 20, (2R)-(4-Biphenylsulfonylamino)-5-(1,2,3,4-tetrahydro-1-methyl-2,4-dioxoquinazolin-3-yl)pentanoic Acid Hydroxyamide]: the melting point was 202 to 203 °C. Take `Cn1c(=O)n(CCCCC(NS(=O)(=O)c2ccc(-c3ccc(Cl)cc3)cc2)C(=O)O)c(=O)c2ccccc21` [Example 31, (2R,S)-(4′-Chlorobiphenyl-4-sulfonylamino)-6-(1,2,3,4-tetrahydro-1-methyl-2,4-dioxoquinazolin-3-yl)hexanoic Acid]: the melting point lay within 208 to 210 °C.

Compound `CC1(C)NC(=O)N(CCCCC(NS(=O)(=O)c2ccc(-c3ccc(Cl)cc3)cc2)C(=O)O)C1=O` [Example 32, (2R,S)-(4′-Chlorobiphenyl-4-sulfonylamino)-6-(4,4-dimethyl-2,5-dioxoimidazolidin-1-yl)-hexanoic Acid] returned a melting point of 78 to 80 °C.

In turn, `CN1C(=O)N(CC[C@@H](NS(=O)(=O)c2ccc(-c3ccc(Cl)cc3)cc2)C(=O)O)C(=O)C1(C)C` [Example 35, (2R)-(4′-Chlorobiphenyl-4-sulfonylamino)-4-(3,4,4-trimethyl-2,5-dioxoimidazolidin-1-yl)-butyric Acid] yielded a melting point of 43 °C. Consider `O=C(O)[C@@H](CCN1C(=O)[C@@H]2Cc3ccccc3CN2C1=O)NS(=O)(=O)c1ccc(-c2ccc(Cl)cc2)cc1` [Example 36, (2R)-(4′-Chlorobiphenyl-4-sulfonylamino)-4-[(1,3-dioxo-1,5,10, (10aS)-tetrahydroimidazo-[1,5-b]isoquinolin-2-yl)]butyric Acid], for which the melting point stood at 70 °C. Take `CN1C(=O)N(CC[C@@H](NS(=O)(=O)c2ccc(-c3ccc(Cl)cc3)cc2)C(=O)NO)C(=O)C1(C)C` [Example 38, (2R)-(4′-Chlorobiphenyl-4-sulfonylamino)-4-(3,4,4-trimethyl-2,5-dioxoimidazolidin-1-yl)-butyric Acid Hydroxyamide]: the melting point was 117 to 120 °C.

Take `CN1C(=O)N(CC(NS(=O)(=O)c2ccc(-c3ccc(Cl)cc3)cc2)C(=O)O)C(=O)C1(C)C` [Example 39, (2R,S)-(4′-Chlorobiphenyl-4-sulfonylamino)-3-(3,4,4-trimethyl-1,2,5-dioxoimidazolidin-1-yl)propanoic Acid]: the melting point fell in the range of 198 to 201 °C.

Turning to `Cn1c(=O)n(CC(NS(=O)(=O)c2ccc(-c3ccc(Cl)cc3)cc2)C(=O)O)c(=O)c2ccccc21` [Example 40, (2R,S)-(4′-Chlorobiphenyl-4-sulfonylamino)-3-(1,2,3,4-tetrahydro-1-methyl-2,4-dioxoquinazolin-3-yl)propanoic Acid], the melting point is 218 °C (dec.). The compound `O=C(O)[C@@H](CC(=O)N1CCOCC1)NS(=O)(=O)c1ccc(Oc2ccccc2)cc1` [Example 42, (2R)-(4-Phenyloxybenzenesulfonylamino)-4-morpholin-4-yl-4-oxobutyric Acid] had a melting point of 147 to 149 °C. Consider `O=C(O)[C@@H](CC(=O)N1CCOCC1)NS(=O)(=O)c1ccc(-c2ccc(Cl)cc2)cc1` [Example 43, (2R)-(4′-Chlorobiphenyl-4-sulfonylamino)-4-morpholin-4-yl-4-oxobutyric Acid], for which the melting point is 144 to 146 °C.

As to `O=C(NO)[C@@H](CC(=O)N1CCOCC1)NS(=O)(=O)c1ccc(Oc2ccccc2)cc1` [Example 44, (2R)-(4-Phenyloxybenzenesulfonylamino)-4-morpholin-4-yl-4-oxobutyric Acid Hydroxyamide], the melting point fell in the range of 161 to 163 °C. `O=C(NO)[C@@H](CC(=O)N1CCOCC1)NS(=O)(=O)c1ccc(-c2ccc(Cl)cc2)cc1` [Example 45, (2R)-(4′-Chlorobiphenyl-4-sulfonylamino)-4-morpholin-4-yI-4-oxobutyric Acid Hydroxyamide] returned a melting point of 139 to 141 °C.

Broadly, the melting point is the temperature of the solid-liquid transition.

The record behind these values is patent publication US6410580B1, “Sulfonylamino derivatives which inhibit matrix-degrading metalloproteinases” (Novartis AG, priority 2000, dated 2002).
